Assay results taken from patent US20110152218A1, “CRYSTALLINE PHOSPHOLIPID, METHOD FOR ITS PRODUCTION AND USE IN TREATING DAMAGED TISSUE” (priority 2008, published 2011).
Entries after “also recorded” stand apart in the source; their conditions may differ.

Tests used:
Assay type in all cases: cell-based, rabbit
[1] = system: cells derived from the tendon sheath; test: WST-1 proliferation assay, tendon sheath cells
Method: (§1) Therefore all three-cell types were established and cultured as separate cell strains.
(§2) Tendon derived fibroblasts were cultured in Dulbecco's Modified Eagles Medium (DMEM) with 10% fetal calf serum, 2 mM glutamine, 100 U/ml penicillin and […] streptomycin (NGM).
(§3) A 5 mg/ml solution of the phospholipid prepared according to Example 1 and referred to in this example as “Pumactant” was dissolved in serum free media in a sterile 100 ml bottle incubated at 37° C. and then diluted further to a concentration of 1 mg/ml.
(§4) Fibroblasts derived from tendons were seeded at 5×10^3/well into a 96 microtitre plate (Greiner) and allowed to attach overnight in minimum media (DMEM supplemented with 0.4% FCS) to maintain cells in a healthy but quiescent state. After 24 hrs, the media was aspirated and replaced by test media (minimum media with concentrations of pumactant; or different concentrations of fetal calf serum; or different concentrations of TGF-β1) and cultured for 24, 48 and 72 hours. Cell number was assessed using WST-1 assay (Roche Products Ltd). Test media was removed and the wells washed twice with minimal media, minimal media was replaced and 10 μl WST-1 solution was added to each well. The cells were incubated for 1 hour in standard tissue culture conditions. The absorbance, which related to the number of viable cells converting the reagent to coloured formazan crystals, was read at 450 nm on a Bio-Rad Plate reader. Experiments were performed in triplicate for each cell strain.

[2] = system: cells derived from the surface of the tendon (epitenon); test: WST-1 proliferation assay, tendon surface cells
Method: as §1, §2, §3, §4

[3] = system: tendon core cells (endotenon); test: WST-1 proliferation assay, tendon core cells
Method: as §1, §2, §3, §4

[4] = system: collagen type I, collagen type III, fibronectin, PAI-1, tPA gene transcription in surface derived cells; test: QRT-PCR gene transcription, surface derived cells; conditions: time course
Method: (§5) Cells were placed in serum free media for 24 hrs prior to stimulation with pumactant or TGF-β1; viability was assessed using Trypan blue (Sigma; data not shown). Quiescent cells were treated with pumactant (1 mg/ml) for 0-24 hrs or TGF-β1 for 0-24 h ours (positive control). Total RNA was isolated from treated and untreated samples using Trizol (Gibco). Quant-iT™ Ribogreen® RNA kit (Invitrogen) was used to determine RNA concentration. First strand cDNA was synthesized using the StrataScript® first-strand synthesis system (Stratagene™) with oligonucleotide dTs (0.5 μg/μl) according to manufacturer's instructions.
(§6) Two μl of the first strand cDNA product was used for amplification in triplicate in a 25 μl reaction solution containing 12.5 μl of SYBR Green PCR Master Mix (Stratagene™, La Jolla, Calif.) and 10 pM of each primer as per manufacturer's instructions. Primer sequences are identified in Table 1. The primer sequences are also listed in the sequence listing which is attached to the specification of the present application and made a part thereof.
(§7) The PCR reaction was performed on a MX3000P (Stratagene, La Jolla, Calif.). The PCR program consisted of an initial denaturation where the reaction was incubated for 10 min at 95° C., the second step the DNA was amplified for 40 cycles of 30 sec at 95° C. annealing of primers for 1 min at 60° C. and an extension at 72° C. for 30 sec. Dissociation curve was performed to ensure no primer-dimers were present at the end of each PCR run.
(§8) The relative expression software tool (REST©) was used for the calculation of relative expression levels in real-time PCR (Pfaffl et al, 2002). This mathematical model is based on the PCR efficiencies and the mean crossing point deviation between the treated and untreated cells. The target gene expression was normalized with two housekeeping genes: GAPDH and ACTB. Statistical analysis of group differences was performed by Pair Wise Fixed Reallocation Randomization Test©, implemented in the REST-XL software (Pfaffl et al, 2002) and the coefficient of variance was given. Sigma Plot was used to illustrate the logarithmic graphs.

[5] = system: collagen type I, collagen type III, fibronectin, PAI-1, tPA gene transcription in sheath derived cells; test: QRT-PCR gene transcription, sheath derived cells; conditions: time course, pumactant 1 mg/ml or TGF-β1, n=3
Method: as §5, §6, §7, §8

[6] = system: collagen type I, collagen type III, fibronectin, PAI-1, tPA gene transcription in core derived cells; test: QRT-PCR gene transcription, core derived cells; conditions: 48-hour time course, pumactant 1 mg/ml or TGF-β1 2 ng/ml, n=3
Method: as §5, with “Quiescent cells were treated with pumactant (1 mg/ml) for 0-24 hrs or TGF-β1 for 0-24 h ours (positive control).” left out
as §6, §7, §8

[7] = pumactant 1 mg/ml or TGF-β1, n=3

“TGF-β1: growth factor used as positive control” was tested, and the “cell number of sheath cells compared to control media” value ([1]; 24 hours, the other / various concentrations) was “no statistical significance; also recorded: no statistical changes in cell number”, the “proliferation of sheath cells” value ([1]; 48 hours, any concentration) was “no statistical significance for any concentration” and the “proliferation of sheath cells” value ([1]; 72 hours, 0.5 ng/ml of TGF-β1) was “statistical significant increase”. For the same substance, the “proliferation of surface cells” value ([2]; 24 hours, over the tested concentrations) was “no statistical significant difference at any concentration”, the “proliferation of surface cells” value ([2]; 48 hours, various concentrations of TGF-β1) was “No concentrations of TGF-β1 showed any statistical increase; also recorded: no statistical significance” and the “proliferation of surface cells compared to minimal media” value ([2]; 72 hours, 2 ng/ml of TGF-β1, FIG. 24C) was “statistically significant increase in proliferation; also recorded: increase was identified at 2 ng/ml”. For the same substance, the “proliferation of core cells” value ([3]; 24 hours, over the tested concentrations, FIG. 25) was “no statistical increase in proliferation”, the “proliferation of core cells” value ([3]; 48 hours, various concentrations) was “no statistical significance” and the “proliferation of core cells” value ([3]; 72 hours, any concentration, FIG. 27) was “no statistical significance”. For the same substance, the PAI-1 gene transcription [4, 7] was “up regulation in response to TGF-β1, which was statistically significant at 24 hours for fibronectin (p=0.03) and 4 hours for PAI-1”, the “collagen type III gene transcription” value [4, 7] was “statistically significant down regulation at 1 hrs (*p=0.036), 2 hrs (*p=0.001), 6 hrs (*p=0.038), 16 hrs and 48 hrs” and the fibronectin gene transcription [4, 7] was “up regulation in response to TGF-β1, which was statistically significant at 24 hours for fibronectin”. For the same substance, the “collagen type I gene transcription” value ([4]; pumactant 1 mg/ml or TGF-β1, vs untreated, normalized with GAPDH and ACTB, n=3) was “up regulation of Collagen type I gene transcription which was statistically significant at 24 and 48 hours; also recorded: statistically significant up regulation at 24 hours (*p=0.025) and 48 hours”, the PAI-1 gene transcription [5] was “no statistical changes over the whole time course” and the “collagen type I gene transcription” value [5] was “up regulate of Collagen type I gene transcription over the time course though this did not reach statistical significance”. For the same substance, the “collagen type III gene transcription” value [5] was “up regulation, which was statistically significant at 6 hours, 8 hours (p=0.03; FIG. 30), 16 and 24 hours; also recorded: statistically significant up regulation at 6 hrs (*p=0.03), 8 hrs (*p=0.037), 16 hrs (*p=0.012) and 24 hrs”, the fibronectin gene transcription [5] was “no statistical changes over the whole time course” and the tPA gene transcription [5] was “down regulation of gene transcription which was statistically significant at 2 hrs (p=0.013), 4 hours and 24 hours; also recorded: statistically significant down regulation at 2 hrs (*p=0.013), 4 hrs (*p=0.001) and 24 hrs”. The PAI-1 gene transcription [6] was “up regulation of gene transcription at 2 and 4 hours but this was only statistically significant at 2 hours; also recorded: statistically significant increase at 2 hrs”, the “collagen type I gene transcription” value [6] was “no statistical change” and the “collagen type III gene transcription” value [6] was “statistically significant down regulation in the early stages of the time course 2, 6 and 8 hours; also recorded: statistically significant down regulation at 2, 6 and 8 hours”. For the same substance, the fibronectin gene transcription [6] was “at 6 h a statistically significant down regulation (p=0.024), which was later, reversed with a statistically significant up regulation at 24 and 48 hours; also recorded: significant down regulation of fibronectin gene transcription at 6 hours (*p=0.024) and a statistically significant up-regulation at 24 hrs (*p=0.03) and 48 hrs” and the tPA gene transcription [6] was “statistically significant down regulation in gene transcription at 1, 2, 6, 8 and 24 hrs 0.01) and 16 hours”.
